# “Also recorded” adds a separate entry of the source. Counter-ions that a name gives are not always drawn. Like-named read-outs stand apart in the source and are kept apart here.
# Assays:
# [1] = biological target: 5-HT transporter (Homo sapiens, UniProt P31645); experiment: Radioligand binding
# Protocol: (§1) Radioligand binding. Radioligand binding assays were performed at Eurofins CEREP (France). The results are expressed as a percent of control specific binding (measured specific binding*100/control specific binding) and as a percent inhibition of control specific binding (100-(measured specific binding*100)/control specific binding) obtained in the presence of the test compounds. The IC50 values (concentration causing a half-maximal inhibition of control specific binding) and Hill coefficients (nH) were determined by non-linear regression analysis of the competition curves generated with mean replicate values using Hill equation curve fitting (Y = D + [A-D]/[1 + (C/C50)^nH], where Y = specific binding, A = left asymptote of the curve, D = right asymptote of the curve, C = compound concentration, C50 = IC50, and nH = slope factor). This analysis was performed using software developed at Cerep (Hill software) and validated by comparison with data generated by the commercial software SigmaPlot® 4.0 for Windows® (© 1997 by SPSS Inc.). The inhibition constants (Ki) were calculated using the Cheng Prusoff equation (Ki = IC50/[1 + L/KD], where L = concentration of radioligand in the assay, and KD = affinity of the radioligand for the receptor). A scatchard plot is used to determine the Kd.
# [2] = biological target: T1, D4.4 (Homo sapiens, UniProt P21917); experiment: Radioligand binding
# T1 sequence (P21917 1-419): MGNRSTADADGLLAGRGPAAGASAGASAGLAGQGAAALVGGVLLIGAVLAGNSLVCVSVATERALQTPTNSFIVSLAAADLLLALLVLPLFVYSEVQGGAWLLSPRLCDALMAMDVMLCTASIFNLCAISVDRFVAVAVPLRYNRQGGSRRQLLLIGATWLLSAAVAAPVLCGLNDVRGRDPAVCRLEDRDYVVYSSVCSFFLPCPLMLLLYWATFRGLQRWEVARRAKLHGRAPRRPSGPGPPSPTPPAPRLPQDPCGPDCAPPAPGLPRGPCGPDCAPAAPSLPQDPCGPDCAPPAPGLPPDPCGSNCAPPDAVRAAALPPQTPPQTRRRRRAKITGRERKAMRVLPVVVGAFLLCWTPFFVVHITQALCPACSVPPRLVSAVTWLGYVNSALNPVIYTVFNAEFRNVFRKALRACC
# Protocol: as §1
# [3] = biological target: T2, M4 (Homo sapiens, UniProt P08173); experiment: Radioligand binding
# T2 sequence (P08173 1-479): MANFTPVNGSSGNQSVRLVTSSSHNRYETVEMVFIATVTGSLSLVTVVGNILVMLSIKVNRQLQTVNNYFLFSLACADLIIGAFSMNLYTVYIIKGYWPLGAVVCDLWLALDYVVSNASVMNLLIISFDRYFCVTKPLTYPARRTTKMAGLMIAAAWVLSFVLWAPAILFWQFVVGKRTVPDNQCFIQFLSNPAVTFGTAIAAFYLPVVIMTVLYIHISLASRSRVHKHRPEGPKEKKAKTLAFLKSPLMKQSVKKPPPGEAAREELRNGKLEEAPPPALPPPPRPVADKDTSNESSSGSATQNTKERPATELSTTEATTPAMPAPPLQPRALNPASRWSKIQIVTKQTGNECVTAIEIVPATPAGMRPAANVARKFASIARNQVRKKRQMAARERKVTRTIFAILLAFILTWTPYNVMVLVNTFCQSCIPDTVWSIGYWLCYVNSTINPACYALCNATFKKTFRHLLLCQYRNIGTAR
# Protocol: as §1
# [4] = tested on: Na+ channel (site 2); experiment: Radioligand binding; design: species or system rat
# [5] = tested on: rats; experiment: Maximal electroshock seizure (MES) test; type: in vivo
# [6] = tested on: mice; experiment: 6 Hz test; type: in vivo; conditions: mice; for ED50: Mus musculus
# Protocol: The 6 Hz model test was carried out according to the protocol originally described by Brown et al. [54] and more recently by Barton et al. [55] and Kamiński et al. [47] and is a model of pharmacoresistant epilepsy [56].
# [7] = tested on: mice; experiment: Corneal kindling; type: in vivo; conditions: ip
# [8] = tested on: rats; type: in vivo; conditions: ip
# [9] = tested on: mice; experiment: Subcutaneous pentylenetetrazole seizure test (ScPTZ, SCMET); type: in vivo; conditions: ip, […]
# Protocol: The assays were carried out within the Epilepsy Therapy Screening Program (ETSP, previously known as the Anticonvulsant Screening Program, ASP), Epilepsy Branch, National Institute of Neurological and Communicative Disorders and Stroke, National Institutes of Health in Rockville, MD, USA [23].
# [10] = tested on: mice; experiment: Formalin test (ETSP, area under the curve); type: in vivo; conditions: ip
# [11] = tested on: rats; experiment: SCMET (subcutaneous Metrazol) test; type: in vivo; conditions: for SCMET ED50: rats
# [12] = tested on: organotypic hippocampal slice cultures; experiment: Neuroprotection primary screen, excitotoxin kainic acid; type: cell-based; conditions: kainic acid 20 µM, 10 and 100 µM compound
# Protocol: Compound 2 : ADD t{umber, b890s0 Batch: lB- Date Compteted. Ect\,t""201 0 […]
# Excilotoxin: llGinic ncia Insult Duration: l+ Hours Solvent: […]
# Ai lxn zopr.,r aZ lxa zopr,r Ae lre zoprta
# Bz lr<n zopn er ]ra zopr',t l:+aot a r ooprt/|*aa9o8o l oopM lgaeota t oot,tr,t*gB9o8o t oopM […]
# The "Primary screen Experiment" is a qualitative assessment of the ability of a compound to prevent excitotoxic cell dearh. organotypic hippocampal slice clltures are treated with N-methyl-D-aipartate lNuoa; o; kainic acid (KA) to induce neuronal cell death. Propidium iodide (Pl), a membrane-impermeant compound, is included in all welts of the culture plate.
# Dying cells have compromised cell membranes, thus Pl may diffuse into the cell, intercalate with DNA and ftuoresce. Thus, the intensity of the Pl fluorescence is proportional to the amount of cell death in the individual slices. Hippocampal slice cultures are treated with the excitotoxin alone, or where indicated above, with the excitotoxin and either one eltu/o investigational compounds at the concentrations indicated. lf neuroprotection occurs as a consequence of the added […]
# been treated with the excitotoxin alone.
# (1 picture or pasted object on this page, not shown here)
# [13] = tested on: mice
# [14] = tested on: mice; experiment: iv pentylenetetrazole (PTZ) seizure threshold test; conditions: compound ip
# Protocol: They were also evaluated in the iv pentylenetetrazole (PTZ) test.
# Data are expressed as the mean PTZ dose ± SEM for n = 10 that induced clonus or twitch in mice exposed to a particular dose of the test compound
# [15] = 3 μM, read-out: % of control specific binding
# [16] = 0.1 μM, read-out: % of control specific binding
# [17] = 1 μM, read-out: % of control specific binding
# [18] = 10 μM, read-out: % of control specific binding
# [19] = 100 μM, read-out: % of control specific binding
# 5-HT transporter, sequence (P31645 whole entry): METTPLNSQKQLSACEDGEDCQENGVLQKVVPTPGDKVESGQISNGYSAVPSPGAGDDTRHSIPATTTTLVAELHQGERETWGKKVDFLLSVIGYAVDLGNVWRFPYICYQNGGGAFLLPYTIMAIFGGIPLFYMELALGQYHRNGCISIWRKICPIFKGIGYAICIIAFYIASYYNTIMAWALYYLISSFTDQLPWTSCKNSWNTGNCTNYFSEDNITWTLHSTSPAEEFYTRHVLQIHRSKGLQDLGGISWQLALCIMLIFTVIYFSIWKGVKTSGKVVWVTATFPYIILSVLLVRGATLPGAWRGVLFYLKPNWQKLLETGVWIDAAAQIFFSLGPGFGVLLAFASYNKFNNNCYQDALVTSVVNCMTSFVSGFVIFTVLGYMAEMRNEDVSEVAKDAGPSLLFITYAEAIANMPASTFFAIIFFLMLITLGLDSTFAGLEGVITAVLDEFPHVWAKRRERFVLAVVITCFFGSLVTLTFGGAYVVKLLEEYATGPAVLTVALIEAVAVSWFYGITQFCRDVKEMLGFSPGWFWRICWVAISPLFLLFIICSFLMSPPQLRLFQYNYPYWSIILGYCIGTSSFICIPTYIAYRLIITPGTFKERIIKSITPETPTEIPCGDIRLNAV
smiles,measurement,setting,value
"CCC(CO)NCCOc1c(C)cccc1Cl (stereo not drawn) [Compound 4, R,S-2-((2-(2-chloro-6-methylphenoxy)ethyl)amino)butan-1-ol]",% of control specific binding,[1]; 100 μM,5.1%
same,% of control specific binding,[2]; 100 μM,26.6%
same,% of control specific binding,[3]; 100 μM,30.5%
same,% of control specific binding,[4]; 100 μM,11.6%
same,MES TPE,[5]; ip,0.25 h
same,MES ED50,"[5]; ip, […]",7.3 (5.39–9.89) mg/kg
same,MES ED50,[5]; po,> 60 mg/kg
same,MES PI,[5]; po,> 3.55
same,MES ED50,"[5]; po, […]",67.69 (43.01–93.82) mg/kg
same,6 Hz ED50,"[6]; 32 mA, ip",32.4 (28.4–36.0) mg/kg
same,6 Hz TPE,"[6]; 32 mA, ip",0.25 h
same,6 Hz ED50,"[6]; 44 mA, ip",29.75 (28.3–31.5) mg/kg
same,6 Hz TPE,"[6]; 44 mA, ip",0.25 h
same,Corneal kindling TPE,[7],0.25 h
same,Corneal kindling ED50,[7]; […],19.51 (11.86–28.41) mg/kg
same,Hippocampal kindling avg. seizure score by Racine (0–5),"[8]; at 40 mg/kg, 0.25–2.25 h",5
same,SCMET ED50,[9]; mice,> 64 mg/kg
same,Area under the curve (I phase),[10]; 21 mg/kg,124.8 ± 32.7
same,Area under the curve (II phase),[10]; 21 mg/kg,569.2 ± 405.0
same,"Area under the curve, % of control (I phase)",[10]; 21 mg/kg,64.0%
same,"Area under the curve, % of control (II phase)",[10]; 21 mg/kg,72.7%
same,Area under the curve (I phase),"[10]; 21 mg/kg, listed as 348014",124.8
same,Area under the curve (II phase),"[10]; 21 mg/kg, listed as 348014",569.2
same,SCMET ED50,"[11]; ip, […]",> 50 mg/kg
same,SCMET ED50,[11]; po,> 240 mg/kg
same,Test Result (neuroprotection),[12],No Neuroprotection
same,MES TPE,"[13]; female mice, ip",0.25 h
same,MES ED50,"[13]; female mice, ip, […]",11.64 (10.55–12.47) mg/kg
same,MES ED50,"[13]; mice, ip, […]",21.44 (18.63–25.32) mg/kg
same,MES PI,"[13]; mice, po",6.12
same,MES TPE,"[13]; mice, po",0.5 h
same,MES ED50,"[13]; mice, po, 0.5 h",58.13 (45.58–68.93) mg/kg
same,influence on seizure threshold,[14],lowered the seizure threshold; also recorded: showed activity in lowering the seizure threshold
"CCC(CO)NCCOc1c(C)cccc1Cl (stereo not drawn) [KM-408, R,S-2-((2-(2-chloro-6-methylphenoxy)ethyl)amino)butan-1-ol hydrochloride]",IC50,[1],3.6 µM
same,Ki,[1],1700 nM
same,remaining activity at 0.003 µM,"[1]; 0.003 μM, read-out: % of control specific binding",105%
same,remaining activity at 0.03 µM,"[1]; 0.03 μM, read-out: % of control specific binding",112%
same,remaining activity at 0.3 µM,"[1]; 0.3 μM, read-out: % of control specific binding",92.8%
same,remaining activity at 3 µM,[1]; [15],61%
same,remaining activity at 30 µM,"[1]; 30 μM, read-out: % of control specific binding",11.5%
same,IC50,[2],66 µM
same,Ki,[2],25 µM
same,remaining activity at 0.01 µM,"[2]; 0.01 μM, read-out: % of control specific binding",100%
same,remaining activity at 0.1 µM,[2]; [16],101%
same,remaining activity at 1 µM,[2]; [17],97.6%
same,remaining activity at 10 µM,[2]; [18],87.9%
same,remaining activity at 100 µM,[2]; [19],39.4%
same,IC50,[3],24 µM
same,Ki,[3],15 µM
same,remaining activity at 0.1 µM,[3]; [16],98%
same,remaining activity at 1 µM,[3]; [17],92%
same,remaining activity at 3 µM,[3]; [15],82.7%
same,remaining activity at 10 µM,[3]; [18],67%
same,remaining activity at 100 µM,[3]; [19],23.8%
same,IC50,[4],15 µM
same,Ki,[4],14 µM
same,% of control specific binding,[4]; 0.3 μM,101.1%
same,% of control specific binding,[4]; 3 μM,92.0%
same,% of control specific binding,[4]; 30 μM,40.3%
same,ED50,"[5]; Rattus norvegicus, ip, 0.25 h",5.69 mg/kg
same,MES PI,[5]; ip,9.55
same,MES TPE,[5]; ip,0.25 h
same,6 Hz TPE,"[6]; 32 mA, ip",0.25 h
same,6 Hz TPE,"[6]; 44 mA, ip",0.25 h
same,6 Hz TPE,"[6]; 44 mA, po",0.25 h
same,ED50,"[6]; ip, 32 mA",29.4 mg/kg
same,ED50,"[6]; ip, 44 mA",35.1 mg/kg
same,ED50,"[6]; po, 44 mA",281 mg/kg
same,Corneal kindling avg. seizure score by Racine (0–5),"[7]; at 30 mg/kg, […]",2.5
same,Hippocampal kindling: death at,[8]; […],200 mg/kg
same,ED50,"[9]; Mus musculus, read-out: SCMET ED50",> 100 mg/kg
same,Area under the curve (I phase),[10]; 13.25 mg/kg,113.7 ± 65.6
same,Area under the curve (II phase),[10]; 13.25 mg/kg,489.7 ± 211.3
same,ED50,"[11]; Rattus norvegicus, ip, […], read-out: SCMET ED50",> 54 mg/kg
same,Test Result (neuroprotection),[12]; listed as 367061,No neurop rotection observed
same,MES TPE,"[13]; mice, ip",0.25 h
same,influence on seizure threshold,[14],the effect was not observed
same,influence on seizure threshold,[14]; listed as KM408,effect was not shown

# — PMC9889419 (Pharmacological Reports, 2022)
